Reference: US20240208912A1 (Mirati Therapeutics, Inc., priority 2021, published 2024)
Where two headings read alike, the source gives them in different places.

Legend:
PRMT5/MEP50 complex = molecular target: T1, PRMT5/MEP50 complex (Homo sapiens, UniProt O14744); experiment: PRMT5:MEP50 HotSpot Assay (full-length histone H2A substrate, plus and minus MTA); assay type: biochemical; settings: IC50 + 2 μM MTA, in the presence of 2 μM MTA
T1 construct: purchased Reaction Biology Corporation
Method in brief: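 Tritiated product on full-length recombinant H2A was counted by scintillation after the stopped reaction was captured on filter paper. Substrate is histone H2A; conditions include plus and minus MTA.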

[1] = test system: HCT116 homozygous MTAP knockout cells; experiment: Proliferation assay (CellTiter-Glo, 10 days) in HCT116 homozygous MTAP knockout cells; assay type: cell-based; settings: CellTiter-Glo after 10 days of treatment, read-out: Proliferation IC50 (nM) HCT116 MTAP_KO
Method in brief: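 CellTiter-Glo viability read on day 11 gives a 10-day IC50. Dosing began one day after seeding, with a 1:10 split into fresh drug-containing medium on day 6. Cells are HCT116 lacking both MTAP alleles via CRISPR/Cas9, run alongside the parental line.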

[2] = test system: PRMT5-dependent Symmetric Di-methyl Arginine signal in HCT116 homozygous MTAP Knockout cells; experiment: SYM11 In-Cell Western in HCT116 homozygous MTAP knockout cells; assay type: cell-based; settings: 4 days of treatment, SYM11/DRAQ5 ratio as percent of DMSO control, read-out: In-cell-Western (SYM11) IC50 (nM) HCT116 MTAP_KO
Method: HCT116 cells were genetically engineered to knock out the function of both MTAP alleles using a CRISPR/Cas9 system and an sgRNA targeting the MTAP gene. Following Cas9/MTAP sgRNA transduction, clones were screened to confirm that each allele of the MTAP gene had been inactivated (i.e., homozygous MTAP knock out) creating an MTAP-deficient cell.
Control samples were analyzed in parallel.
Briefly, on Day 0, 2,000 HCT116 parental or HCT116 homozygous MTAP knockout cells were seeded in 96 well plates in McCoy's 5A supplemented with 10% fetal bovine serum and pen/strep and the cells were incubated overnight at 37° C. plus 5% CO2. The following day, cells were treated with DMSO vehicle control or a dose response of PRMT5 inhibitors, and incubated at 37° C. plus 5% CO^2 for four days.
After 4 days of treatment, the cells were fixed by adding 50 μl of 4% paraformaldehyde solution to each well and the cells were incubated for 20 min at room temperature. The paraformaldehyde solution was removed, 150 μl of ice-cold methanol was added and the plate was placed −20° C. for 10 minutes. The methanol was removed, 150 μl of Odyssey Blocking buffer+0.05% Tween20 was added and the plate was incubated at room temperature with shaking for one hour.
The primary SYM11 antibody solution was removed by aspiration and the wells were washed three consecutive times with phosphate buffered saline containing 0.1% Tween-20 (PBST).
The secondary antibody solution was removed by aspiration and the wells were washed three consecutive times with PBST.
The SYM11 signal and the DRAQ5 signal were quantified using a Li-Cor Odyssey machine reading at […], respectively. The SYM11/DRAQ5 ratio was used to calculate the inhibition of Symmetric Dimethyl Arginine as percent of DMSO control.

T1 sequence (O14744 2-637 limits assumed): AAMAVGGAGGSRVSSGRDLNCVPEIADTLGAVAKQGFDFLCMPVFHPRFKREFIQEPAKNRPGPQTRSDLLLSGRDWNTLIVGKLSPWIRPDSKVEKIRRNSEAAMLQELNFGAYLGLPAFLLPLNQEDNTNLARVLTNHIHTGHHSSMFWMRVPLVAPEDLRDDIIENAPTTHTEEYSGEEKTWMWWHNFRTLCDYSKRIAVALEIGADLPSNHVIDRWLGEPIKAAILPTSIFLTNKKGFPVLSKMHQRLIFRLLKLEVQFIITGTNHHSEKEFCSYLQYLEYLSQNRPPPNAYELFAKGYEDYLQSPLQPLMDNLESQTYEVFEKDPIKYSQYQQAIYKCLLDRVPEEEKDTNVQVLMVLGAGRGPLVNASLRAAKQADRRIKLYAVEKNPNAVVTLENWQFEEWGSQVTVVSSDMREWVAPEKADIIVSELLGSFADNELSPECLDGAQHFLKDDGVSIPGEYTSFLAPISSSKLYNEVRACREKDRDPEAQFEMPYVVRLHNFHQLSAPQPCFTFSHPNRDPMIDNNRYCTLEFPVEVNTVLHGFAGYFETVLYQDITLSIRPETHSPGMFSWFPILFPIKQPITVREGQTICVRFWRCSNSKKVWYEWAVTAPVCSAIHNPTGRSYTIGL
T1 sequence (Q9BQA1 2-342 partner limits assumed): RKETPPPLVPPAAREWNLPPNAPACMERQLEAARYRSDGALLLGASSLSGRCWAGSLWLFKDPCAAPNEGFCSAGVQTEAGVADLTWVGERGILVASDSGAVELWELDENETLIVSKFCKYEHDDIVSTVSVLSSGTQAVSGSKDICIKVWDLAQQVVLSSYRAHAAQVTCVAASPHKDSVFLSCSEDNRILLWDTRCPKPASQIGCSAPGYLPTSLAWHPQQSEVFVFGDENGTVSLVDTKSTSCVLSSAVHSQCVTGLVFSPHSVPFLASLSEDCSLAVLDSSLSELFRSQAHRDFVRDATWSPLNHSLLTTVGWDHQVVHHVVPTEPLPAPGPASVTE

SMILES | IC50 (PRMT5/MEP50 complex) [µM] | IC50 [1] [nM] | IC50 [2] [nM] | IC50 ([1]; Homo sapiens, HCT-116, 240 h) [nM] | IC50 ([2]; Homo sapiens, HCT-116, 96 h) [nM]
Cn1ncc(-c2cc(Cl)c3c(=O)[nH]nc(CN)c3c2)c1-c1c(F)ccc(OC2CC2)c1C#N (atropisomer, axis not shown; (P)) [Example 16-55, (P)-2-[4-[4-(aminomethyl)-8-chloro-1-oxo-2H-phthalazin-6-yl]-2-methyl-pyrazol-3-yl]-6-(cyclopropoxy)-3-fluoro-benzonitrile] | 0.26 | 77 | 57 |  | 
Cc1cc(-c2cnn(C)c2-c2c(F)cc3ccccc3c2C#N)cc2c(CN)n[nH]c(=O)c12 (single isomer, unassigned) [Example 16-16, (M)-2-[4-[4-(aminomethyl)-8-methyl-1-oxo-2H-phthalazin-6-yl]-2-methyl-pyrazol-3-yl]-3-fluoro-naphthalene-1-carbonitrile] | 0.0136 | 6 | 6 |  | 
Cc1cc(-c2cnn(C)c2-c2c(F)ccc(OC3CC3)c2C#N)cc2c(CN)n[nH]c(=O)c12 (atropisomer, axis not shown; (M)) [Example 16-48, (M)-2-[4-[4-(aminomethyl)-8-methyl-1-oxo-2H-phthalazin-6-yl]-2-methyl-pyrazol-3-yl]-6-(cyclopropoxy)-3-fluoro-benzonitrile] | 0.128 | 19 | 10 |  | 
Cc1cc(-c2cnn(C)c2-c2c(F)c(Cl)cc(OC3CC3)c2C#N)cc2c(CN)n[nH]c(=O)c12 (single isomer, unassigned) [Example 16-46, (M)-2-[4-[4-(aminomethyl)-8-methyl-1-oxo-2H-phthalazin-6-yl]-2-methyl-pyrazol-3-yl]-4-chloro-6-(cyclopropoxy)-3-fluoro-benzonitrile] | 0.0419 | 7 | 6 |  | 
Cn1ncc(-c2ccc3c(=O)[nH]cc(CN)c3c2)c1-c1ccc2ccccc2c1C#N [Example 18-2, 2-[4-[4-(aminomethyl)-1-oxo-2H-isoquinolin-6-yl]-2-methyl-pyrazol-3-yl]naphthalene-1-carbonitrile] | 2.93 |  |  | 2870 | > 1000
Cn1ncc(-c2cc(Cl)c3c(=O)[nH]nc(CN)c3c2)c1-c1c(C#N)cc2ccccc2c1Cl (single isomer, unassigned) [Example 16-64, (M)-3-[4-[4-(aminomethyl)-8-chloro-1-oxo-2H-phthalazin-6-yl]-2-methyl-pyrazol-3-yl]-4-chloro-naphthalene-2-carbonitrile] | 0.0233 | 17 | 13 |  | 
Cc1cc(-c2cnn(C)c2-c2c(F)ccc(OC3CC3)c2C#N)cc2c(CN)n[nH]c(=O)c12 (atropisomer, axis not shown; (P)) [Example 16-47, (P)-2-[4-[4-(aminomethyl)-8-methyl-1-oxo-2H-phthalazin-6-yl]-2-methyl-pyrazol-3-yl]-6-(cyclopropoxy)-3-fluoro-benzonitrile] | 0.304 | 51 |  |  | 11
Cc1c(F)c(-c2c(-c3cc(C)c4c(=O)[nH]nc(CN)c4c3)cnn2C)c(C#N)c2ccccc12 (single isomer, unassigned) [Example 16-41, (P)-2-[4-[4-(aminomethyl)-8-methyl-1-oxo-2H-phthalazin-6-yl]-2-methyl-pyrazol-3-yl]-3-fluoro-4-methyl-naphthalene-1-carbonitrile] | 0.64 | 290 | 246 |  | 
Cc1cc(-c2cnn(C)c2-c2c(F)c(Cl)cc(OC3CC3)c2C#N)cc2c(CN)n[nH]c(=O)c12 (single isomer, unassigned) [Example 16-45, (P)-2-[4-[4-(aminomethyl)-8-methyl-1-oxo-2H-phthalazin-6-yl]-2-methyl-pyrazol-3-yl]-4-chloro-6-(cyclopropoxy)-3-fluoro-benzonitrile] | 1.97 | 798 | 282 |  | 
Cc1cc(OC2CC2)c(C#N)c(-c2c(-c3cc(C)c4c(=O)[nH]nc(CN)c4c3)cnn2C)c1F (single isomer, unassigned) [Example 16-44, (M)-2-(4-(4-(aminomethyl)-8-methyl-1-oxo-1,2-dihydrophthalazin-6-yl)-1-methyl-1H-pyrazol-5-yl)-6-cyclopropoxy-3-fluoro-4-methylbenzonitrile] | 0.0695 | 20 | 13 |  | 

Second part, the compound after the results:

IC50 (PRMT5/MEP50 complex) [µM] | IC50 [1] [nM] | IC50 [2] [nM] | IC50 ([1]; Homo sapiens, HCT-116, 240 h) [nM] | IC50 ([2]; Homo sapiens, HCT-116, 96 h) [nM] | SMILES
0.0158 | 10 | 3 |  |  | Cn1ncc(-c2ccc3c(=O)[nH]nc(CN)c3c2)c1-c1c(F)c(Cl)c2ccccc2c1C#N (single isomer, unassigned) [Example 16-10, (M)-2-[4-[4-(aminomethyl)-1-oxo-2H-phthalazin-6-yl]-2-methyl-pyrazol-3-yl]-4-chloro-3-fluoro-naphthalene-1-carbonitrile]
0.108 |  |  | 281 | 98 | Cn1ncc(-c2ccc3c(=O)[nH]nc(CN)c3c2)c1-c1sc2ccc(Cl)cc2c1C#N [Example 4-262, 2-[4-[4-(aminomethyl)-1-oxo-2H-phthalazin-6-yl]-2-methyl-pyrazol-3-yl]-5-chloro-benzothiophene-3-carbonitrile]
0.248 | 307 | 93 |  |  | Cn1ncc(-c2ccc3c(=O)[nH]nc(CN)c3c2)c1-c1c(F)c(Cl)c2ccccc2c1C#N (single isomer, unassigned) [Example 16-9, (P)-2-[4-[4-(aminomethyl)-1-oxo-2H-phthalazin-6-yl]-2-methyl-pyrazol-3-yl]-4-chloro-3-fluoro-naphthalene-1-carbonitrile]
0.994 | 2850 | 272 |  |  | Cn1ncc(-c2ccc3c(=O)[nH]nc(CN)c3c2)c1-c1c(C#N)cc2ccccc2c1Cl (single isomer, unassigned) [Example 16-5]
0.028 | 64 | 20 |  |  | Cn1ncc(-c2ccc3c(=O)[nH]nc(CN)c3c2)c1-c1c(C#N)cc2ccccc2c1Cl (single isomer, unassigned) [Example 16-6]
0.507 |  |  | 312 | 324 | Cn1ncc(-c2ccc3c(=O)[nH]nc(CN)c3c2)c1-c1c(C#N)sc2ccccc12 [Example 4-266, 3-[4-[4-(aminomethyl)-1-oxo-2H-phthalazin-6-yl]-2-methyl-pyrazol-3-yl]benzothiophene-2-carbonitrile]
0.0868 |  |  | 52 | 17 | Cn1ncc(-c2cc(Cl)c3c(=O)[nH]nc(CN)c3c2)c1-c1sc2ccccc2c1C#N [Example 10-22, 2-(4-(4-(aminomethyl)-8-chloro-1-oxo-1,2-dihydrophthalazin-6-yl)-1-methyl-1H-pyrazol-5-yl)benzo[b]thiophene-3-carbonitrile]
0.341 | 859 | 437 |  |  | Cn1ncc(-c2cc(Cl)c3c(=O)[nH]nc(CN)c3c2)c1-c1c(C#N)cc2ccccc2c1Cl (single isomer, unassigned) [Example 16-63, (P)-3-[4-[4-(aminomethyl)-8-chloro-1-oxo-2H-phthalazin-6-yl]-2-methyl-pyrazol-3-yl]-4-chloro-naphthalene-2-carbonitrile]
6.14 |  |  | 10000 | 1000 | Cn1ncc(-c2ccc3c(=O)[nH]nc(CN)c3c2)c1-c1csc2cccc(=O)n12 [Example 4-267, 3-[4-[4-(aminomethyl)-1-oxo-2H-phthalazin-6-yl]-2-methyl-pyrazol-3-yl] thiazolo[3,2-a]pyridin-5-one]
0.095 | 33 | 17 |  |  | Cc1cc(-c2cnn(C)c2-c2c(F)cc3ccccc3c2C#N)cc2c(CN)n[nH]c(=O)c12 (single isomer, unassigned) [Example 16-15, (P)-2-[4-[4-(aminomethyl)-8-methyl-1-oxo-2H-phthalazin-6-yl]-2-methyl-pyrazol-3-yl]-3-fluoro-naphthalene-1-carbonitrile]
